Reference: PubChem BioAssay (NCI)
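Grown in 96-well plates, cells were treated for 48 hours with each compound at five concentrations. Insufficient inhibition: endpoint recorded as highest concentration tested. Here, GI50 denotes the concentration required for 50% inhibition of growth. TGI denotes the concentration required for complete inhibition of growth.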

Tests used:
Assay in all cases: growth of human tumour cells (NCI), 48 h
[1] = tested on: MDA-MB-435
[2] = tested on: HCC-2998 colon
[3] = tested on: SF-268 CNS
[4] = tested on: HOP-62 NSCLC
[5] = tested on: MALME-3M melanoma
[6] = tested on: RPMI-8226 leukemia
[7] = tested on: ACHN renal
[8] = tested on: U251 CNS
[9] = tested on: A498 renal
[10] = tested on: T-47D breast
[11] = tested on: COLO 205 colon
[12] = tested on: SNB-19 CNS
[13] = tested on: LOX IMVI melanoma
[14] = tested on: MDA-MB-231 breast
[15] = tested on: HCT-15 colon
[16] = tested on: A549 NSCLC
[17] = tested on: NCI-H23 lung
[18] = tested on: DU-145 prostate
[19] = tested on: RXF 393 renal
[20] = tested on: SK-MEL-28 melanoma
[21] = tested on: MDA-N
[22] = tested on: M14 melanoma
[23] = tested on: UO-31 renal
[24] = tested on: KM12 colon
[25] = tested on: CCRF-CEM leukemia
[26] = tested on: SK-MEL-2 melanoma
[27] = tested on: TK-10 renal
[28] = tested on: HL-60(TB) leukemia
[29] = tested on: PC-3 prostate
[30] = tested on: UACC-62 melanoma
[31] = tested on: OVCAR-5 ovarian
[32] = tested on: HCT-116 colon
[33] = tested on: SN12C renal
[34] = tested on: NCI/ADR-RES ovarian
[35] = tested on: EKVX NSCLC
[36] = tested on: HS 578T breast
[37] = tested on: OVCAR-4 ovarian
[38] = tested on: SK-MEL-5 melanoma
[39] = tested on: HT29 colon
[40] = tested on: MCF7 breast
[41] = tested on: 786-0 renal
[42] = tested on: MOLT-4 leukemia
[43] = tested on: K-562 leukemia
[44] = tested on: IGROV1 ovarian
[45] = tested on: CAKI-1 renal
[46] = tested on: NCI-H460 lung
[47] = tested on: UACC-257 melanoma
[48] = tested on: NCI-H226 lung
[49] = tested on: SNB-75 CNS
[50] = tested on: OVCAR-8 ovarian
[51] = tested on: SR leukemia
[52] = tested on: HOP-92 NSCLC
[53] = tested on: BT-549 breast
[54] = tested on: SF-539 CNS
[55] = tested on: SW-620 colon
[56] = tested on: NCI-H522 lung
[57] = tested on: OVCAR-3 ovarian
[58] = tested on: SK-OV-3 ovarian
[59] = tested on: SF-295 CNS

O=c1[nH]cnc2c1ncn2[C@@H]1C[C@H]1CO
TGI [1]: > 100 µM
TGI [2]: > 100 µM
TGI [3]: > 100 µM
TGI [4]: > 100 µM
TGI [5]: > 100 µM
TGI [6]: > 100 µM
TGI [7]: > 100 µM
TGI [8]: > 100 µM
TGI [9]: > 100 µM
TGI [10]: > 100 µM
TGI [11]: > 100 µM
TGI [12]: > 100 µM
TGI [13]: > 100 µM
TGI [14]: > 100 µM
TGI [15]: > 100 µM
TGI [16]: > 100 µM
TGI [17]: > 100 µM
TGI [18]: > 100 µM
TGI [19]: > 100 µM
TGI [20]: > 100 µM
TGI [21]: > 100 µM
TGI [22]: > 100 µM
TGI [23]: > 100 µM
TGI [24]: > 100 µM
TGI [25]: > 100 µM
TGI [26]: > 100 µM
TGI [27]: > 100 µM
TGI [28]: > 100 µM
TGI [29]: > 100 µM
TGI [30]: > 100 µM
TGI [31]: > 100 µM
TGI [32]: > 100 µM
TGI [33]: > 100 µM
TGI [34]: > 100 µM
TGI [35]: > 100 µM
TGI [36]: > 100 µM
TGI [37]: > 100 µM
TGI [38]: > 100 µM
TGI [39]: > 100 µM
TGI [40]: > 100 µM
TGI [41]: > 100 µM
TGI [42]: > 100 µM
TGI [43]: > 100 µM
TGI [44]: > 100 µM
TGI [45]: > 100 µM
TGI [46]: > 100 µM
TGI [47]: > 100 µM
TGI [48]: > 100 µM
TGI [49]: > 100 µM
TGI [50]: > 100 µM
TGI [51]: > 100 µM
TGI [52]: > 100 µM
TGI [53]: > 100 µM
TGI [54]: > 100 µM
TGI [55]: > 100 µM
TGI [56]: > 100 µM

CC1(C)CCC(C)(C)c2c1ccc(O)c2Cc1c(O)ccc2c1C(C)(C)CCC2(C)C
TGI [1]: 3.48 µM
TGI [3]: 6.75 µM
TGI [4]: 4.1 µM
TGI [5]: 6.6 µM
TGI [6]: 4.47 µM
TGI [7]: 3.19 µM
TGI [8]: 3.18 µM
TGI [9]: 3.43 µM
TGI [10]: 3.8 µM
TGI [11]: 4.44 µM
TGI [12]: 5.4 µM
TGI [57]: 4.32 µM
TGI [13]: 3.39 µM
TGI [14]: 3.22 µM
TGI [15]: 3.98 µM
TGI [16]: 5.57 µM
TGI [17]: 4.11 µM
TGI [18]: 5.45 µM
TGI [19]: 3.47 µM
TGI [20]: 4.93 µM
TGI [21]: 3.73 µM
TGI [22]: 3.75 µM
TGI [23]: 4.04 µM
TGI [24]: 3.91 µM
TGI [25]: 5.75 µM
TGI [26]: 3.19 µM
TGI [27]: 3.87 µM
TGI [28]: 5.46 µM
TGI [29]: 3.79 µM
TGI [30]: 4.33 µM
TGI [31]: 4.56 µM
TGI [32]: 4.2 µM
TGI [33]: 3.31 µM
TGI [34]: 4.43 µM
TGI [35]: 9.16 µM
TGI [58]: 4.84 µM
TGI [36]: 8.85 µM
TGI [37]: 3.53 µM
TGI [38]: 3.51 µM
TGI [39]: 4.4 µM
TGI [40]: 3.83 µM
TGI [41]: 3.61 µM
TGI [42]: 4.71 µM
TGI [43]: 5.41 µM
TGI [44]: 3.68 µM
TGI [45]: 4.2 µM
TGI [46]: 5.77 µM
TGI [47]: 3.45 µM
TGI [48]: 3.88 µM
TGI [49]: 5.33 µM
TGI [50]: 4.53 µM
TGI [51]: 6.8 µM
TGI [52]: 3.7 µM
TGI [53]: 5.2 µM
TGI [59]: 4.99 µM
TGI [54]: 4.05 µM
TGI [55]: 5.05 µM
TGI [56]: 4.04 µM

NC1=NCCN1CC(=O)O
GI50 [1]: > 10000 µM
TGI [1]: > 10000 µM
GI50 [2]: > 10000 µM
TGI [2]: > 10000 µM
GI50 [3]: > 1000 µM
TGI [3]: > 10000 µM
GI50 [4]: > 10000 µM
TGI [4]: > 10000 µM
TGI [5]: > 1000 µM
GI50 [6]: > 10000 µM
TGI [6]: > 10000 µM
GI50 [7]: > 10000 µM
TGI [7]: > 10000 µM
GI50 [8]: > 10000 µM
TGI [8]: > 10000 µM
GI50 [9]: > 10000 µM
TGI [9]: > 10000 µM
GI50 [10]: > 10000 µM
TGI [10]: > 10000 µM
GI50 [11]: > 10000 µM
TGI [11]: > 10000 µM
GI50 [12]: > 10000 µM
TGI [12]: > 10000 µM
GI50 [57]: > 10000 µM
TGI [57]: > 10000 µM
GI50 [13]: > 10000 µM
TGI [13]: > 10000 µM
GI50 [14]: > 10000 µM
TGI [14]: > 10000 µM
GI50 [15]: > 10000 µM
TGI [15]: > 10000 µM
GI50 [16]: > 10000 µM
TGI [16]: > 10000 µM
GI50 [17]: > 10000 µM
TGI [17]: > 10000 µM
GI50 [18]: > 10000 µM
TGI [18]: > 10000 µM
GI50 [19]: > 10000 µM
TGI [19]: > 10000 µM
GI50 [20]: > 10000 µM
TGI [20]: > 10000 µM
TGI [21]: > 10000 µM
GI50 [22]: > 10000 µM
TGI [22]: > 10000 µM
GI50 [23]: > 10000 µM
TGI [23]: > 10000 µM
TGI [24]: > 10000 µM
GI50 [25]: > 10000 µM
TGI [25]: > 10000 µM
GI50 [26]: > 10000 µM
TGI [26]: > 10000 µM
GI50 [27]: > 10000 µM
TGI [27]: > 10000 µM
TGI [28]: > 1000 µM
GI50 [29]: > 10000 µM
TGI [29]: > 10000 µM
GI50 [30]: > 10000 µM
TGI [30]: > 10000 µM
GI50 [31]: > 10000 µM
TGI [31]: > 10000 µM
GI50 [32]: > 10000 µM
TGI [32]: > 10000 µM
GI50 [33]: > 10000 µM
TGI [33]: > 10000 µM
GI50 [34]: > 10000 µM
TGI [34]: > 10000 µM
TGI [35]: > 10000 µM
GI50 [58]: > 10000 µM
TGI [58]: > 10000 µM
GI50 [36]: > 1000 µM
TGI [36]: > 10000 µM
GI50 [37]: > 10000 µM
TGI [37]: > 10000 µM
GI50 [38]: > 10000 µM
TGI [38]: > 10000 µM
GI50 [39]: > 10000 µM
TGI [39]: > 10000 µM
GI50 [40]: > 10000 µM
TGI [40]: > 10000 µM
GI50 [41]: > 10000 µM
TGI [41]: > 10000 µM
GI50 [42]: > 10000 µM
TGI [42]: > 10000 µM
TGI [43]: > 1000 µM
GI50 [44]: > 10000 µM
TGI [44]: > 10000 µM
TGI [45]: > 10000 µM
GI50 [46]: > 10000 µM
TGI [46]: > 10000 µM
GI50 [47]: > 10000 µM
TGI [47]: > 10000 µM
GI50 [48]: > 10000 µM
TGI [48]: > 10000 µM
GI50 [50]: > 10000 µM
TGI [50]: > 10000 µM
GI50 [51]: > 10000 µM
TGI [51]: > 10000 µM
GI50 [52]: > 10000 µM
TGI [52]: > 10000 µM
GI50 [53]: > 10000 µM
TGI [53]: > 10000 µM
TGI [59]: > 10000 µM
TGI [54]: > 1000 µM
GI50 [55]: > 10000 µM
TGI [55]: > 10000 µM
TGI [56]: > 10000 µM
